Where a name gives a salt, the structure may show the parent alone.

Broadly, the melting point is the temperature, or range, at which the solid turns liquid. As to `Nc1nc(-c2ccc(C(=O)N3CCN(S(=O)(=O)c4ccc5cc(Br)ccc5c4)CC3)cc2)c[nH]1` (as salt: salt) [Example 4, 1-(6-Bromonaphth-2-ylsulphonyl)-4-[4-(2-aminoimidazol-4-yl)benzoyl]piperazine], the melting point was in the range of 274 to 275 °C.
Next, `Cc1nc(-c2ccc(C(=O)N3CCN(S(=O)(=O)c4ccc5cc(Br)ccc5c4)CC3)cc2)c[nH]1` [Example 3, 1-(6-Bromonaphth-2-ylsulphonyl)-4-[4-(2-methylimidazol-4-yl)benzoyl]piperazine]: 215 to 216 °C.

For the origin of these results see patent publication US6395731B1, “Heterocyclic derivatives which inhibit Factor Xa” (Astrazeneca AB, priority 1998, dated 2002).
